According to PMC11590367, “Characterization of novel small molecule inhibitors of estrogen receptor-activation function 2 (ER-AF2)” (Breast Cancer Research : BCR, 2024):
Entries after “also recorded” stand apart in the source; their conditions may differ.

Assays:
[1] = target: ER-Y537S - SRC3 interaction (Homo sapiens, UniProt P03372, Y537S); experiment: Proximity ligation assay, ER-Y537S mutant; assay type: cell-based; conditions: PLA, 10 µM
Protocol: MCF7 or TamR3 cells were starved for 72 h and then seeded onto PEI coated coverslips in a 6-well plate at 1 × 10^5 cells/well. For the E2 experiments, the cells were treated the following day with 10 µM of ER-AF2 inhibitor for 24 h, with E2 added 1 h before fixation. […] 24 h post-treatment, cells were fixed in methanol:acetone (3:1). Coverslips were then permeabilized with 0.05% Triton X-100 for 5 minutes at room temperature. The Duolink In Situ Detection Reagents Red kit from Millipore Sigma (DUO92008) was used for blocking and PLA according to the manufacturer’s protocol. Primary antibodies, Estrogen Receptor alpha antibody (F-10) (sc-8002) and Rabbit anti-SRC3 antibody (A300-348 A), were diluted 1:50 in antibody diluent.

MDA-MB-231 cells = experiment: PrestoBlue viability assay, MDA-MB-231; assay type: cell-based; conditions: dose response 50 to 0.01 µM, 1 nM E2
Protocol: T47D, MCF7, TamR3, and MDA-MB-231 cells were starved for 72 h and then seeded into black clear-bottom 96-well plates (Corning Life Sciences Cat#3904) at 20,000 cells/well (T47D, MCF7, TamR3) or 5,000 cells/well (MDA-MB-231). […] 20 µl of PrestoBlue Cell Viability Reagent (Thermo Fisher A13262) was added to each well and incubated at 37 °C for 1 h. Fluorescence intensity was measured using the TECAN F500 plate reader with emission and excitation wavelengths of […], respectively.

[2] = Precipitation in MST assay buffer; assay type: physicochemical; conditions: 2% DMSO, 0.03 to 1000 µM
Protocol: MST was used to validate the direct binding and measure the binding affinities between the lead compounds and the recombinant ER-LBD. ER-LBD was labeled with red fluorescent dye using a Protein Labeling Kit RED-NHS 2nd Generation (Nanotemper MO-L011) according to the manufacturer’s protocol. The compounds were serially diluted 1:2 in 100% DMSO from 50 to 0.0015 mM, then added to 10 nM of labeled ER protein in the assay buffer (25 mM Tris, pH 8.4, 150 mM NaCl, 20 µM E2, 0.1 mM PMSF, 0.05% Tween20) at final concentrations of 0.03 to 1000 µM. Recombinant proteins in cell free assays are not affected by DMSO concentrations up to 10%. A final concentration of 2% DMSO was chosen for MST as the compounds required this concentration to be soluble in the assay buffer. […] The corresponding data points were removed from the analysis. […] Each protein/compound mixture was then loaded into Monolith Premium Capillaries (Nanotemper MO-K025). All assays were conducted with medium MST power and 20% excitation power. Data analysis and Kd estimation were performed with the MO Affinity Analysis software from Nanotemper.

[3] = test system: ER target genes (cyclinD1, CDC2, E2F, PR, pS2) in TamR3 cells; experiment: Real-time PCR of ER target genes, TamR3; assay type: cell-based; conditions: 72 h
Protocol: Total RNA was extracted using TRIzol, 72 h post-treatment. cDNA synthesis was conducted using the Maxima First Strand cDNA Synthesis Kit for RT-qPCR (Thermo K1641) according to the manufacturer’s protocol. RT-PCR was conducted on the QuantStudio 7 Pro instrument and expression fold change was calculated using 2−ΔΔCt method normalized to 18s.

[4] = target: T1, PR (ARR3tk-luc) in PC3 cells (Homo sapiens, UniProt P06401); experiment: Nuclear receptor luciferase transcriptional assay, PR; assay type: cell-based; conditions: 1 or 5 µM, 1 nM Levonorgestrel
T1 construct: expressed in transfected cells; host or cells: PC3 cells
Protocol: (§1) PC3 cells (androgen receptor (AR)-, glucocorticoid receptor (GR)[…], progesterone receptor (PR)-, ER-) were starved for 72 h then seeded into a 96-well plate at a density of 5,000 cells/well. 24 h later, cells were transfected with either ER, AR, GR, or PR and a luciferase plasmid (ERE-luc for ER and ARR3tk-luc for AR, GR, and PR). 24 h post-transfection, cells were simultaneously stimulated with 1 nM E2 for ER, 0.1 nM R1881 for AR, 1 nM Dexamethasone for GR, or 1 nM Levonorgestrel for PR, and treated with 1 or 5 µM of VPC-260724 24 h post-treatment, cells were lysed with 50 µl of passive lysis buffer (Promega #E1910). 20 µl of lysate was transferred to a white flat-bottom 96-well plate (Corning Life Sciences Cat#3912). Luminescence readings were obtained using the TECAN M200 Pro plate reader following the addition of 50 µl of luciferase reagent (Promega Luciferase Assay System E1500).

[5] = target: T2, GR (ARR3tk-luc) in PC3 cells (Homo sapiens, UniProt P04150); experiment: Nuclear receptor luciferase transcriptional assay, GR; assay type: cell-based; conditions: 1 or 5 µM, 1 nM Dexamethasone
T2 construct: expressed in transfected cells; host or cells: PC3 cells
Protocol: as §1

[6] = target: T3, full length ERɑ protein, estrogen binding site (EBS) (Homo sapiens, UniProt P03372); experiment: E2-displacement assay (PolarScreen fluorescence polarization); conditions: fluorescence polarization, 1, 10 and 50 µM
T3 construct: full length ERɑ protein was incubated with Fluormone ES2 Green; purchased ThermoFisher A15882
Protocol: The E2 displacement assay was performed using the PolarScreen Estrogen Receptor Alpha Competitor Assay, Green (ThermoFisher A15882) according to the manufacturer’s protocol. In brief, full length ERɑ protein was incubated with Fluormone ES2 Green (Fluormone Tracer) in the ES2 screening buffer in a black bottom 384-well plate (Corning 3573) in the presence of either 1, 10, or 50 µM of test compounds. The final concentrations in the assay were 2% DMSO (consistent with the MST assay), 4.5 nM fluormone, and 40 nM ERɑ protein. 20 µl of the mixture were added to each well, with triplicates performed for each condition. The plate was incubated in the dark at room temperature for 4 h before fluorescence polarization was measured using a Synergy Neo2 plate reader (BioTek).

[7] = test system: ER transcriptional activity in T47D-KBluc cells; experiment: Luciferase transcriptional assay; assay type: cell-based; conditions: ER transcription, luciferase reporter, 1 nM E2, 24 h treatment, ± SD of 3 biological replicates
Protocol: T47D-KBluc cells or PC3m-luc cells were starved for 72 h and then seeded into 96-well plates at 20,000 or 5,000 cells/well, respectively. […] One day post-treatment, the media was removed, and cells were lysed with 65 µl of 1x passive lysis buffer (Promega #E1910). Following two freeze-thaw cycles, 20 µl of lysate were transferred to a white, 96-well flat bottom plate (Corning Life Sciences Cat#3912). 50 µl of luciferase reagent (Promega. Luciferase Assay System E1500) was added to each well, and luminescence was measured using the TECAN M200 Pro plate reader. E2 (1 nM), 4-hydroxytamoxifen (OHT) (4 nM), and DMSO (0.2%) were used as controls for this assay. […] E2 alone represented 100% transcriptional activation, while the 0.2% DMSO control represented 0% transcriptional activity. OHT was used as a positive control for an active compound.

T1 sequence (P06401 whole entry): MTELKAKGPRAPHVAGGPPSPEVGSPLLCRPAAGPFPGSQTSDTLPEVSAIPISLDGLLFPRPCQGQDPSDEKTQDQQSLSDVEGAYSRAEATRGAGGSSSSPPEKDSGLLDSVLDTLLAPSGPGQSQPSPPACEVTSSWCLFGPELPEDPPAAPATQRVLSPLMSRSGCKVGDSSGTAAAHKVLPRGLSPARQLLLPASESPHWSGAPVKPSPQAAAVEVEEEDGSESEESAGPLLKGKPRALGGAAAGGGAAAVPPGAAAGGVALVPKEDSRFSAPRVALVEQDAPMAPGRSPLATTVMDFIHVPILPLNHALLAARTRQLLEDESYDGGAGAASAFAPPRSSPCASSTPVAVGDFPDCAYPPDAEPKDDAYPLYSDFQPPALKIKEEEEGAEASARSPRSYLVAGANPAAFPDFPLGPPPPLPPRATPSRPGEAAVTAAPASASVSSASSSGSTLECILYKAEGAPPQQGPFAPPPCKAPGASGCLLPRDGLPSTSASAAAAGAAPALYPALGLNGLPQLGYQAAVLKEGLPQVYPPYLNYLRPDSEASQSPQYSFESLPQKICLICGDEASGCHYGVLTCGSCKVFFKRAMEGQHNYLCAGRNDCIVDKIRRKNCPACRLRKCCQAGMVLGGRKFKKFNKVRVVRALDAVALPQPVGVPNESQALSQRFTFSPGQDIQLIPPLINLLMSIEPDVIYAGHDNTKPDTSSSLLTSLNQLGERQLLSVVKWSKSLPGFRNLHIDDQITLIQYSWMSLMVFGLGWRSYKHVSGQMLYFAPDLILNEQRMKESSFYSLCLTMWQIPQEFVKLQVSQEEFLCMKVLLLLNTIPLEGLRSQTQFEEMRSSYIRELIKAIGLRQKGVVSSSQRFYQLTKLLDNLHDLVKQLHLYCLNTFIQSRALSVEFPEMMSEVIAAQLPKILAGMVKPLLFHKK
Sequence of ER-Y537S - SRC3 interaction (P03372 whole entry Y537S): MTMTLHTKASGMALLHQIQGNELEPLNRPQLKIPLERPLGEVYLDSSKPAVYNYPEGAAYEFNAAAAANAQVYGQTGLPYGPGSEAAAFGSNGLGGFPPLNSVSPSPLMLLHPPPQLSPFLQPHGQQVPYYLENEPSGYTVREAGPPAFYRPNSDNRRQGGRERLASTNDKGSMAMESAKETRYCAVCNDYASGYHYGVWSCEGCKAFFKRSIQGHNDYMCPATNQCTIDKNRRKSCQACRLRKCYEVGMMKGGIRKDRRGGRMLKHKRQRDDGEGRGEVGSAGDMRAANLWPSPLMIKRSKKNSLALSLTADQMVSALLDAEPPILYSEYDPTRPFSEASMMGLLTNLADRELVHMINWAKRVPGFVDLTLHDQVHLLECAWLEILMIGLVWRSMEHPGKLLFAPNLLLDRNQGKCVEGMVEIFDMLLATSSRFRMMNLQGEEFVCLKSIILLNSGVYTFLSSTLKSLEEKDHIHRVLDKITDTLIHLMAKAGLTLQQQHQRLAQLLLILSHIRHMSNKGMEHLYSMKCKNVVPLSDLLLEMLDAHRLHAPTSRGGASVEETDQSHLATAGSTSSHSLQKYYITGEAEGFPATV
T3 sequence (P03372 whole entry): as the sequence (P03372 whole entry Y537S) above, with S537Y counted along it
T2 sequence (P04150 whole entry): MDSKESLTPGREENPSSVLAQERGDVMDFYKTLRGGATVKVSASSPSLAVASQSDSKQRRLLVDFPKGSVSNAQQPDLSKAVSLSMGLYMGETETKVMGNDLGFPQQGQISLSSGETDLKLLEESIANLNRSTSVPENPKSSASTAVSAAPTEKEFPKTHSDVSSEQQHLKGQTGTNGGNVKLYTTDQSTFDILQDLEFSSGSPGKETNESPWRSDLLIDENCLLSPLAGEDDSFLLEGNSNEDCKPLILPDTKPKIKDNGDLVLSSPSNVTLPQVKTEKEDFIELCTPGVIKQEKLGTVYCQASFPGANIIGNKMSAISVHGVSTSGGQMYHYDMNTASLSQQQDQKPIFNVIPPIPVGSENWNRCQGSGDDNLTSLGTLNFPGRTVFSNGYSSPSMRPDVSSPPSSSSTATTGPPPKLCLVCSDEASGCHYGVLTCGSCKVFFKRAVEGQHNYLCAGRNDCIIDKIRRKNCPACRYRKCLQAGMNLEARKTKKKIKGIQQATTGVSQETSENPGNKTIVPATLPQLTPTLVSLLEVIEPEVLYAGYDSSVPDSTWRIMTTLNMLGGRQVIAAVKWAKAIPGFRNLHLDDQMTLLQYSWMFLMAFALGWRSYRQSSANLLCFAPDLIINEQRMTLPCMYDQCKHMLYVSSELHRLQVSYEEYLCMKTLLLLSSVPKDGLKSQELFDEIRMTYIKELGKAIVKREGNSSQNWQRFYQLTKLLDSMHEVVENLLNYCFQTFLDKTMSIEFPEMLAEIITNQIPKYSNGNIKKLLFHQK

Cc1cccn2c(CNCc3cccc(N(C)C)n3)cnc12 [VPC-260724]
Interaction between SRC3 and ER-Y537S [1]: inhibited the interaction
Effect on viability of ER-negative MDA-MB-231 cells (MDA-MB-231 cells): minimal impact; also recorded: did not affect the viability
Precipitation after addition of ER protein [2]: did not exhibit precipitation at any concentration
ER target gene expression in TamR3, combined with tamoxifen ([3]; 10 µM with 1 µM Tamoxifen): markedly reduced
mRNA levels of ER target genes, TamR3 ([3]; 10 µM, E2 stimulation): significant decrease
Transcriptional activity of PR [4]: did not significantly impact
Transcriptional activity of GR [5]: did not significantly impact
Displacement of fluormone (fluorescent E2) from EBS [6]: did not displace the fluormone at any of the tested concentrations
IC50 ([7]; 24 h): 5.7 µM
IC50 [7]: 5.75 ± 1.13 µM
